# In ChEMBL document CHEMBL1129417, “Glucose transport-enhancing and hypoglycemic activity of 2-methyl-2-phenoxy-3-phenylpropanoic acids” (1996):
# Legend:
# Assay type in all cases: functional
# 3T3-L1 [1] = test: compound was evaluated for their acute effects in vitro by measuring 2-Deoxyglucose (2DG) uptake in vehicle treated 3T3-L1 adipocytes at 100 uM dose.
# Mus musculus [2] = test: compound was tested in vivo for hypoglycemic activity in 6-8 week old C57BL/6J ob/ob mouse at 50 mg/kg
# Rattus norvegicus [3] = species: Rattus norvegicus; test: Compound was tested for inhibition of gluconeogenesis
# L6 = test: compound was evaluated for their acute effects in vitro by measuring 2-Deoxyglucose (2DG) uptake in vehicle treated L6 […] at 60 uM dose.
# Mus musculus [4] = test: compound was tested in vivo for hypoglycemic activity in 6-8 week old C57BL/6J ob/ob mouse at 25 mg/kg
# 3T3-L1 [5] = test: Acute effects in vitro by measuring 2-deoxyglucose (2DG) uptake in vehicle treated 3T3-L1 adipocytes at 10 uM dose.
# 3T3-L1 [6] = test: Acute effects in vitro by measuring 2-deoxyglucose (2DG) uptake in vehicle treated 3T3-L1 adipocytes at 30 uM dose.
# 3T3-L1 [7] = test: In vitro by measurements of 2-Deoxyglucose (2DG) uptake in vehicle treated 3T3-L1 adipocytes at 3 uM dose.
# Mus musculus [8] = test: compound was tested in vivo for hypoglycemic activity expressed as Glucose lowering relative to positive control in 6-8 week old C57BL/6J ob/ob mouse at 0.5 mg/kg
# Mus musculus [9] = test: In vivo hypoglycemic activity expressed as glucose lowering relative to positive control in 6-8 week old C57BL/6J ob/ob mouse at 10 mg/kg
# Mus musculus [10] = test: In vivo hypoglycemic activity expressed as glucose lowering relative to positive control in 6-8 week old C57BL/6J ob/ob mouse at 1 mg/kg.
# Mus musculus [11] = test: In vivo hypoglycemic activity expressed as glucose lowering relative to positive control in 6-8 week old C57BL/6J ob/ob mouse at 5 mg/kg.
# Rattus norvegicus [12] = species: Rattus norvegicus; test: Inhibition of gluconeogenesis in rat
# 3T3-L1 [13] = test: In vitro measurements of 2-Deoxyglucose (2DG) uptake in vehicle treated 3T3-L1 adipocytes at 60 uM dose.
# Mus musculus [14] = test: compound was tested in vivo for hypoglycemic activity expressed as Glucose lowering relative to positive control in 6-8 week old C57BL/6J ob/ob mouse at 25 mg/kg
# 3T3-L1 [15] = test: compound was evaluated for their acute effects in vitro by measuring 2-Deoxyglucose (2DG) uptake in vehicle treated 3T3-L1 adipocytes at 3 uM dose.
# 3T3-L1 [16] = test: In vitro measurements 2-Deoxyglucose (2DG) uptake in vehicle treated 3T3-L1 adipocytes at 100 uM dose.
# Mus musculus [17] = test: compound was tested in vivo for hypoglycemic activity expressed as Glucose lowering relative to positive control in 6-8 week old C57BL/6J ob/ob mouse at 50 mg/kg
# Mus musculus [18] = test: compound was tested in vivo for hypoglycemic activity in 6-8 week old C57BL/6J ob/ob mouse at 10 mg/kg
# 3T3-L1 [19] = test: compound was evaluated for their acute effects in vitro by measuring 2-Deoxyglucose (2DG) uptake in vehicle treated 3T3-L1 adipocytes at 1 uM dose.
# [20] = Rattus norvegicus, read-out: ED50
smiles,measurement,setting,value
C1CCC(NC2CCCCC2)CC1.CC(C)c1ccc(OC(Cc2cccc(Cl)c2)C(=O)O)cc1 (centres undefined),Basal uptake,3T3-L1 [1],160%
same,Hypoglycemic activity,Mus musculus [2],32%
same,ED50,Rattus norvegicus [3]; [20],> 50 mg/kg
C1CCC(NC2CCCCC2)CC1.CC(C)c1ccc(OC(Cc2ccccc2C(F)(F)F)C(=O)O)cc1 (centres undefined),Basal uptake,3T3-L1 [1],191%
same,Hypoglycemic activity,Mus musculus [2],<0%
same,ED50,Rattus norvegicus [3]; [20],> 50 mg/kg
C1CCC(NC2CCCCC2)CC1.CC(C)c1ccc(OC(CCc2ccc(Cl)cc2)C(=O)O)cc1 (centres undefined),Basal uptake,3T3-L1 [1],89%
same,Basal uptake,L6,89%
same,Hypoglycemic activity,Mus musculus [4],64%
same,ED50,Rattus norvegicus [3]; [20],< 25 mg/kg
CC(C)c1ccc(OC(C)(Cc2ccc(-c3ccccc3)cc2)C(=O)[O-])cc1.[Na+] (centres undefined),Basal uptake,3T3-L1 [5],129%
same,Basal uptake,3T3-L1 [6],126%
same,Basal uptake,3T3-L1 [7],122%
same,Hypoglycemic activity,Mus musculus [8],21%
same,Hypoglycemic activity,Mus musculus [9],116%
same,Hypoglycemic activity,Mus musculus [10],58%
same,Hypoglycemic activity,Mus musculus [11],93%
same,ED50,Rattus norvegicus [12]; [20],1 mg/kg
Cc1ccc(OC(Cc2ccc(Cl)cc2)C(=O)O)cc1 (centres undefined),Basal uptake,3T3-L1 [5],82%
same,Basal uptake,3T3-L1 [6],88%
same,Basal uptake,3T3-L1 [13],<100%
same,Basal uptake,L6,93%
same,Hypoglycemic activity,Mus musculus [14],33%
same,ED50,Rattus norvegicus [12]; [20],> 25 mg/kg
CC(C)c1ccc(CC(C)(Oc2ccc(C(C)C)cc2)C(=O)[O-])cc1.[Na+] (centres undefined),Basal uptake,3T3-L1 [5],97%
same,Basal uptake,3T3-L1 [6],93%
same,Basal uptake,3T3-L1 [15],97%
same,Hypoglycemic activity,Mus musculus [9],93%
same,Hypoglycemic activity,Mus musculus [11],<0%
same,ED50,Rattus norvegicus [12]; [20],5 mg/kg
CC(C)c1ccc(OC(Cc2ccc(Cl)cc2Cl)C(=O)O)cc1 (centres undefined),Basal uptake,3T3-L1 [16],222%
same,Hypoglycemic activity,Mus musculus [9],30%
same,Hypoglycemic activity,Mus musculus [17],70%
same,Hypoglycemic activity,Mus musculus [11],45%
same,ED50,Rattus norvegicus [12]; [20],10 mg/kg
CC(C)c1ccc(OC(Cc2ccc(Br)cc2)C(=O)O)cc1 (centres undefined),Basal uptake,3T3-L1 [16],203%
same,Hypoglycemic activity,Mus musculus [9],<0%
same,Hypoglycemic activity,Mus musculus [17],122%
same,ED50,Rattus norvegicus [12]; [20],10 mg/kg
CC(C)c1ccc(OC(C)(Cc2ccc3c(c2)CCC3)C(=O)[O-])cc1.[Na+] (centres undefined),Hypoglycemic activity,Mus musculus [8],34%
same,Hypoglycemic activity,Mus musculus [9],126%
same,Hypoglycemic activity,Mus musculus [10],83%
same,Hypoglycemic activity,Mus musculus [11],121%
same,ED50,Rattus norvegicus [12]; [20],0.5 mg/kg
O=C(O)C(Cc1ccc(Cl)cc1)Oc1ccccc1 (centres undefined),Basal uptake,3T3-L1 [13],100%
same,Basal uptake,L6,86%
same,Hypoglycemic activity,Mus musculus [14],<0%
same,ED50,Rattus norvegicus [12]; [20],> 25 mg/kg
COc1ccc(OC(Cc2ccc(Cl)cc2)C(=O)O)cc1 (centres undefined),Basal uptake,L6,98%
same,Hypoglycemic activity,Mus musculus [14],23%
same,ED50,Rattus norvegicus [12]; [20],> 25 mg/kg
CC(C)c1ccc2c(c1)CCC(Cc1ccc(Cl)cc1)(C(=O)O)O2 (centres undefined),Basal uptake,3T3-L1 [5],82%
same,Basal uptake,3T3-L1 [6],80%
same,Basal uptake,3T3-L1 [13],114%
same,Hypoglycemic activity,Mus musculus [17],119%
same,Hypoglycemic activity,Mus musculus [11],<0%
same,ED50,Rattus norvegicus [12]; [20],5 mg/kg
Cc1ccccc1S(=O)(=O)[N-]CC(C)(Cc1ccc(Cl)cc1)Oc1ccc(C(C)C)cc1.[Na+] (centres undefined),Hypoglycemic activity,Mus musculus [18],7%
same,ED50,Rattus norvegicus [3]; [20],10 mg/kg
CC(C)(C)c1ccc(OC(Cc2ccc(Cl)cc2)C(=O)O)cc1 (centres undefined),Basal uptake,3T3-L1 [5],92%
same,Basal uptake,3T3-L1 [6],87%
same,Basal uptake,3T3-L1 [13],<100%
same,Basal uptake,L6,84%
same,Hypoglycemic activity,Mus musculus [14],53%
same,ED50,Rattus norvegicus [12]; [20],25 mg/kg
CCC(c1ccc(Cl)cc1)C(C)(Oc1ccc(C(C)C)cc1)C(=O)O (stereo in doubt; 86),Basal uptake,3T3-L1 [5],91%
same,Basal uptake,3T3-L1 [19],97%
same,Basal uptake,3T3-L1 [6],95%
same,Hypoglycemic activity,Mus musculus [9]; 10 mg/kg,71%
same,ED50,Rattus norvegicus [12]; [20],< 10 mg/kg
CCC(c1ccc(Cl)cc1)C(C)(Oc1ccc(C(C)C)cc1)C(=O)O (stereo in doubt; 87),Basal uptake,3T3-L1 [5],96%
same,Basal uptake,3T3-L1 [19],98%
same,Basal uptake,3T3-L1 [6],109%
same,Hypoglycemic activity,Mus musculus [9]; 10 mg/kg,32%
same,ED50,Rattus norvegicus [12],>10 mg/kg
CC(C)c1ccc(C(F)C(C)(Cc2ccc(Cl)cc2)C(=O)O)cc1 (stereo in doubt; 94),Hypoglycemic activity,Mus musculus [18]; 10 mg/kg,63%
same,ED50,Rattus norvegicus [3],10 mg/kg
CC(C)c1ccc(C(F)C(C)(Cc2ccc(Cl)cc2)C(=O)O)cc1 (stereo in doubt; 95),Hypoglycemic activity,Mus musculus [18]; 10 mg/kg,50%
same,ED50,Rattus norvegicus [3]; [20],10 mg/kg
